The results in this text go back to ChEMBL document CHEMBL3259527, “Synthesis and molecular docking studies of potent α-glucosidase inhibitors based on biscoumarin skeleton” (Eur J Med Chem, 2014).

Molecules are shown by their SMILES.

The species entered for one assay is Rattus norvegicus. Description: Ratio of acarbose IC50 to compound IC50 for rat intestinal alpha-glucosidase using p-nitrophenyl-alpha-D-glucopyranoside assessed as release of p-nitrophenol after 5 mins by spectrophotometric analysis.
As to `O=c1oc2ccc(Cl)cc2c(O)c1C(c1cccc([N+](=O)[O-])c1)c1c(O)c2cc(Cl)ccc2oc1=O`, the Ratio IC50 was 33. On the same count and under the same terms, the result for `O=c1oc2ccc(Cl)cc2c(O)c1C(c1ccc(Cl)cc1Cl)c1c(O)c2cc(Cl)ccc2oc1=O` reads 54.

Target in the next assay: not listed separately
Kind of assay: Inhibition of rat intestinal alpha-glucosidase using p-nitrophenyl-alpha-D-glucopyranoside assessed as release of p-nitrophenol after 5 mins by spectrophotometric analysis.
In the case of `COc1cc(C(c2c(O)c3cc(Cl)ccc3oc2=O)c2c(O)c3cc(Cl)ccc3oc2=O)cc(OC)c1OC`, the 50% inhibitory concentration (IC50) was 128 µM. Consider `O=c1oc2ccc(Cl)cc2c(O)c1C(c1cccc([N+](=O)[O-])c1)c1c(O)c2cc(Cl)ccc2oc1=O`, for which the IC50 stood at 27.1 µM. The same measure, in the same setting: the result for `CCOc1cc(C(c2c(O)c3cc(Cl)ccc3oc2=O)c2c(O)c3cc(Cl)ccc3oc2=O)ccc1O` reads 57.1 µM; that for `Cc1ccc2oc(=O)c(C(c3cccc(O)c3)c3c(O)c4cc(C)ccc4oc3=O)c(O)c2c1`, 52.6 µM. Same read-out and setting: the result for `Cc1ccc2oc(=O)c(C(c3ccc([N+](=O)[O-])cc3)c3c(O)c4cc(C)ccc4oc3=O)c(O)c2c1` reads 79.2 µM; that for `O=c1oc2ccc(Cl)cc2c(O)c1C(c1ccc(Cl)cc1Cl)c1c(O)c2cc(Cl)ccc2oc1=O`, 16.5 µM; that for `C[C@H]1O[C@H](O[C@H]2[C@H](O)[C@@H](O)[C@@H](O[C@H]3[C@H](O)[C@@H](O)C(O)O[C@@H]3CO)O[C@@H]2CO)[C@H](O)[C@@H](O)[C@@H]1N[C@H]1C=C(CO)[C@@H](O)[C@H](O)[C@H]1O` (stereo partly specified) [ACARBOSE], 906 µM. As for `Cc1ccc2oc(=O)c(C(c3ccccc3[N+](=O)[O-])c3c(O)c4cc(C)ccc4oc3=O)c(O)c2c1`, the IC50 was determined as 129 µM. Still for that read-out and setting: the result for `CSc1ccc(C(c2c(O)c3cc(C)ccc3oc2=O)c2c(O)c3cc(C)ccc3oc2=O)cc1` reads 37.4 µM; that for `COc1cc(C(c2c(O)c3cc(Cl)ccc3oc2=O)c2c(O)c3cc(Cl)ccc3oc2=O)ccc1O`, 113 µM. On the same count and under the same terms, the same measure for `COc1ccc(C(c2c(O)c3cc(Cl)ccc3oc2=O)c2c(O)c3cc(Cl)ccc3oc2=O)cc1`: 75.7 µM.

Regarding `COc1ccc(C(c2c(O)c3cc(Cl)ccc3oc2=O)c2c(O)c3cc(Cl)ccc3oc2=O)cc1O`, the IC50 was 83.6 µM. Still for that read-out and setting: the same measure for `COc1ccc(C(c2c(O)c3cc(Cl)ccc3oc2=O)c2c(O)c3cc(Cl)ccc3oc2=O)cc1OC`: 91.4 µM; for `Cc1ccc2oc(=O)c(C(c3cccc([N+](=O)[O-])c3)c3c(O)c4cc(C)ccc4oc3=O)c(O)c2c1`: 68 µM. Same read-out and setting: the result for `CCOc1cc(C(c2c(O)c3cc(C)ccc3oc2=O)c2c(O)c3cc(C)ccc3oc2=O)ccc1O` reads 222 µM; that for `COc1ccc(C(c2c(O)c3cc(C)ccc3oc2=O)c2c(O)c3cc(C)ccc3oc2=O)cc1`, 107 µM. `O=c1oc2ccc(Cl)cc2c(O)c1C(c1cccc(O)c1)c1c(O)c2cc(Cl)ccc2oc1=O`: the IC50 is 84.1 µM.

Turning to `COc1cc(C(c2c(O)c3cc(C)ccc3oc2=O)c2c(O)c3cc(C)ccc3oc2=O)cc(OC)c1OC`, the IC50 came to 386 µM.

Regarding `O=c1oc2ccc(Cl)cc2c(O)c1C(c1ccccc1[N+](=O)[O-])c1c(O)c2cc(Cl)ccc2oc1=O`, the IC50 was found to be 80.9 µM.
